Data reported in ChEMBL document CHEMBL4507264, “Data for DCP probe BAY-7598” (2021).

Legend:
[1] = target: SRSF protein kinase 2 (Homo sapiens) (UniProt P78362); details: Compound concentration 1000.0 nM
[2] = target: Ribosomal protein S6 kinase alpha-2 (Homo sapiens) (UniProt Q15349); details: Compound concentration 1000.0 nM
[3] = target: Serine/threonine-protein kinase Nek1 (Homo sapiens) (UniProt Q96PY6); details: Compound concentration 1000.0 nM
[4] = target: Fibroblast growth factor receptor 4 (Homo sapiens) (UniProt P22455); details: Compound concentration 1000.0 nM
[5] = target: Maternal embryonic leucine zipper kinase (Homo sapiens) (UniProt Q14680); details: Compound concentration 1000.0 nM
[6] = target: Dual specificity mitogen-activated protein kinase kinase 3 (Homo sapiens) (UniProt P46734); details: Compound concentration 1000.0 nM
[7] = target: Fibroblast growth factor receptor 2 (Homo sapiens) (UniProt P21802); details: Compound concentration 1000.0 nM
[8] = target: Histamine H3 receptor (Homo sapiens) (UniProt Q9Y5N1); details: Compound concentration 10.0 uM
[9] = target: Mitotic checkpoint serine/threonine-protein kinase BUB1 (Homo sapiens) (UniProt O43683); details: Compound concentration 1000.0 nM
[10] = target: Bone morphogenetic protein receptor type-1A (Homo sapiens) (UniProt P36894); details: Compound concentration 1000.0 nM
[11] = target: High affinity nerve growth factor receptor (Homo sapiens) (UniProt P04629); details: Compound concentration 1000.0 nM
[12] = target: Mitogen-activated protein kinase kinase kinase kinase 2 (Homo sapiens) (UniProt Q12851); details: Compound concentration 1000.0 nM
[13] = target: Proto-oncogene tyrosine-protein kinase ROS (Homo sapiens) (UniProt P08922); details: Compound concentration 1000.0 nM
[14] = target: Protein-tyrosine kinase 2-beta (Homo sapiens) (UniProt Q14289); details: Compound concentration 1000.0 nM
[15] = target: Receptor tyrosine-protein kinase erbB-4 (Homo sapiens) (UniProt Q15303); details: Compound concentration 1000.0 nM
[16] = target: Interleukin-1 receptor-associated kinase 4 (Homo sapiens) (UniProt Q9NWZ3); details: Compound concentration 1000.0 nM
[17] = target: Myotonin-protein kinase (Homo sapiens) (UniProt Q09013); details: Compound concentration 1000.0 nM
[18] = target: Alpha-2B adrenergic receptor (Homo sapiens) (UniProt P18089); details: Compound concentration 10.0 uM
[19] = target: Receptor tyrosine-protein kinase erbB-2 (Homo sapiens) (UniProt P04626); details: Compound concentration 1000.0 nM
[20] = target: Serine/threonine-protein kinase PLK1 (Homo sapiens) (UniProt P53350); details: Compound concentration 1000.0 nM
[21] = target: Serine/threonine-protein kinase Sgk2 (Homo sapiens) (UniProt Q9HBY8); details: Compound concentration 1000.0 nM
[22] = target: Tyrosine-protein kinase JAK1 (Homo sapiens) (UniProt P23458); details: Compound concentration 1000.0 nM
[23] = system: Phosphatidylinositol 4,5-bisphosphate 3-kinase catalytic subunit alpha isoform (Homo sapiens), P42336 [Q546K]; details: Compound concentration 1000.0 nM
[24] = target: MAP kinase-interacting serine/threonine-protein kinase 2 (Homo sapiens) (UniProt Q9HBH9); details: Compound concentration 1000.0 nM
[25] = target: Non-receptor tyrosine-protein kinase TYK2 (Homo sapiens) (UniProt P29597); details: Compound concentration 1000.0 nM
[26] = system: eIF-2-alpha kinase GCN2 (Homo sapiens), Q9P2K8 [S808G]; details: Compound concentration 1000.0 nM
[27] = target: Serine/threonine-protein kinase 32A (Homo sapiens) (UniProt Q8WU08); details: Compound concentration 1000.0 nM
[28] = system: Mast/stem cell growth factor receptor Kit (Homo sapiens), P10721 [V559D]; details: Compound concentration 1000.0 nM
[29] = target: Calcium/calmodulin-dependent protein kinase type 1 (Homo sapiens) (UniProt Q14012); details: Compound concentration 1000.0 nM
[30] = target: Mitogen-activated protein kinase 9 (Homo sapiens) (UniProt P45984); details: Compound concentration 1000.0 nM
[31] = system: Phosphatidylinositol 4,5-bisphosphate 3-kinase catalytic subunit alpha isoform (Homo sapiens), P42336 [E545A]; details: Compound concentration 1000.0 nM
[32] = target: Tyrosine-protein kinase ITK/TSK (Homo sapiens) (UniProt Q08881); details: Compound concentration 1000.0 nM
[33] = target: Dual specificity tyrosine-phosphorylation-regulated kinase 1A (Homo sapiens) (UniProt Q13627); details: Compound concentration 1000.0 nM
[34] = target: Tyrosine-protein kinase Mer (Homo sapiens) (UniProt Q12866); details: Compound concentration 1000.0 nM
[35] = target: Fibroblast growth factor receptor 3 (Homo sapiens) (UniProt P22607); details: Compound concentration 1000.0 nM
[36] = target: Cyclin-dependent kinase 17 (Homo sapiens) (UniProt Q00537); details: Compound concentration 1000.0 nM
[37] = target: Mitogen-activated protein kinase 15 (Homo sapiens) (UniProt Q8TD08); details: Compound concentration 1000.0 nM
[38] = target: 3-phosphoinositide-dependent protein kinase 1 (Homo sapiens) (UniProt O15530); details: Compound concentration 1000.0 nM
[39] = target: Ribosomal protein S6 kinase alpha-6 (Homo sapiens) (UniProt Q9UK32); details: Compound concentration 1000.0 nM
[40] = target: Serine/threonine-protein kinase MRCK gamma (Homo sapiens) (UniProt Q6DT37); details: Compound concentration 1000.0 nM
[41] = system: Tyrosine-protein kinase ABL1 (Homo sapiens), P00519 [H396P]; details: Compound concentration 1000.0 nM
[42] = target: Rho-associated protein kinase 2 (Homo sapiens) (UniProt O75116); details: Compound concentration 1000.0 nM
[43] = target: cGMP-dependent protein kinase 1 (Homo sapiens) (UniProt Q13976); details: Compound concentration 1000.0 nM
[44] = target: Cyclin-dependent kinase 14 (Homo sapiens) (UniProt O94921); details: Compound concentration 1000.0 nM
[45] = system: Epidermal growth factor receptor (Homo sapiens), P00533 [T790M]; details: Compound concentration 1000.0 nM

Chain of Mitotic checkpoint serine/threonine-protein kinase BUB1 (Homo sapiens) (O43683 whole entry, looked up): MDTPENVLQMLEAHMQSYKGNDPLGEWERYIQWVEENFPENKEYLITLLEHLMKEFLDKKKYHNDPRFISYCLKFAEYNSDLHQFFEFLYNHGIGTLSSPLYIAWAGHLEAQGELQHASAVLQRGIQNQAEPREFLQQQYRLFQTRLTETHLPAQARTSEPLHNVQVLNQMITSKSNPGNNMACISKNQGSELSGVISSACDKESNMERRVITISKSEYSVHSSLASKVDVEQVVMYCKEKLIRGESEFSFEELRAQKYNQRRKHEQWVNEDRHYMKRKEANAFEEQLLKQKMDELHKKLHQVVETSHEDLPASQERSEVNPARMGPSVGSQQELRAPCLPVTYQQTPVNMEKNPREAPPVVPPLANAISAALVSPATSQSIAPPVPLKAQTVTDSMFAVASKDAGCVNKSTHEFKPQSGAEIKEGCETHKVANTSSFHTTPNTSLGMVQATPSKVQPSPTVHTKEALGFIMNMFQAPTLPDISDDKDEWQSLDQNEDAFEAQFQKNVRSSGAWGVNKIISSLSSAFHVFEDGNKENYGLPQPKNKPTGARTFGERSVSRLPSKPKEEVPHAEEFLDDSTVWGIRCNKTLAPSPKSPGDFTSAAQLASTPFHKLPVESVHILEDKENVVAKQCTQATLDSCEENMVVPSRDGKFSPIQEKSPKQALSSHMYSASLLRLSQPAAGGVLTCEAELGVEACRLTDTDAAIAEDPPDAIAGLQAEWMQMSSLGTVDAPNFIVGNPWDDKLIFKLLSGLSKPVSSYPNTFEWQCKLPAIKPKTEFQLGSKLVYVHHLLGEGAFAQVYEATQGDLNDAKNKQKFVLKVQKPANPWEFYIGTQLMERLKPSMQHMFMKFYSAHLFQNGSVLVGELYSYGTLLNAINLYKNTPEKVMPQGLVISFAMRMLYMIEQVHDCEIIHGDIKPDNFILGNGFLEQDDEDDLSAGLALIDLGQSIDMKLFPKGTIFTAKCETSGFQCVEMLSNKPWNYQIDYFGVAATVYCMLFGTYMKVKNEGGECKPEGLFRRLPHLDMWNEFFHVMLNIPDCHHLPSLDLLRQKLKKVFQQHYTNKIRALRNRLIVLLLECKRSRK
Chain of Bone morphogenetic protein receptor type-1A (Homo sapiens) (P36894 whole entry): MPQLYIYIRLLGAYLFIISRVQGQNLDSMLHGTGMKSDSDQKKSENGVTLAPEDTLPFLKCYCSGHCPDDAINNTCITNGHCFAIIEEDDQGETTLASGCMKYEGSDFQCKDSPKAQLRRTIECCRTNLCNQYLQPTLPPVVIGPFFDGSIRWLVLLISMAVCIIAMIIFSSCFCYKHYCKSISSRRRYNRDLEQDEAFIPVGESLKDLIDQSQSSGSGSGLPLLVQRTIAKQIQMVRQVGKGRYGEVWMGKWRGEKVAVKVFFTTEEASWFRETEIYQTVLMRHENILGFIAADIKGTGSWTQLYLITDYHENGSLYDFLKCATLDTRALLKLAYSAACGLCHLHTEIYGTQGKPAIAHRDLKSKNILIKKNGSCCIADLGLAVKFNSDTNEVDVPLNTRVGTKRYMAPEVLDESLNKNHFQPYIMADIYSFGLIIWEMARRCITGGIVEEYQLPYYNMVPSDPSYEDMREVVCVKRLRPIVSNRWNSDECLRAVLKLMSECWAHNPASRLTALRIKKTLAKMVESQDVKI
Chain of Receptor tyrosine-protein kinase erbB-2 (Homo sapiens) (P04626 whole entry): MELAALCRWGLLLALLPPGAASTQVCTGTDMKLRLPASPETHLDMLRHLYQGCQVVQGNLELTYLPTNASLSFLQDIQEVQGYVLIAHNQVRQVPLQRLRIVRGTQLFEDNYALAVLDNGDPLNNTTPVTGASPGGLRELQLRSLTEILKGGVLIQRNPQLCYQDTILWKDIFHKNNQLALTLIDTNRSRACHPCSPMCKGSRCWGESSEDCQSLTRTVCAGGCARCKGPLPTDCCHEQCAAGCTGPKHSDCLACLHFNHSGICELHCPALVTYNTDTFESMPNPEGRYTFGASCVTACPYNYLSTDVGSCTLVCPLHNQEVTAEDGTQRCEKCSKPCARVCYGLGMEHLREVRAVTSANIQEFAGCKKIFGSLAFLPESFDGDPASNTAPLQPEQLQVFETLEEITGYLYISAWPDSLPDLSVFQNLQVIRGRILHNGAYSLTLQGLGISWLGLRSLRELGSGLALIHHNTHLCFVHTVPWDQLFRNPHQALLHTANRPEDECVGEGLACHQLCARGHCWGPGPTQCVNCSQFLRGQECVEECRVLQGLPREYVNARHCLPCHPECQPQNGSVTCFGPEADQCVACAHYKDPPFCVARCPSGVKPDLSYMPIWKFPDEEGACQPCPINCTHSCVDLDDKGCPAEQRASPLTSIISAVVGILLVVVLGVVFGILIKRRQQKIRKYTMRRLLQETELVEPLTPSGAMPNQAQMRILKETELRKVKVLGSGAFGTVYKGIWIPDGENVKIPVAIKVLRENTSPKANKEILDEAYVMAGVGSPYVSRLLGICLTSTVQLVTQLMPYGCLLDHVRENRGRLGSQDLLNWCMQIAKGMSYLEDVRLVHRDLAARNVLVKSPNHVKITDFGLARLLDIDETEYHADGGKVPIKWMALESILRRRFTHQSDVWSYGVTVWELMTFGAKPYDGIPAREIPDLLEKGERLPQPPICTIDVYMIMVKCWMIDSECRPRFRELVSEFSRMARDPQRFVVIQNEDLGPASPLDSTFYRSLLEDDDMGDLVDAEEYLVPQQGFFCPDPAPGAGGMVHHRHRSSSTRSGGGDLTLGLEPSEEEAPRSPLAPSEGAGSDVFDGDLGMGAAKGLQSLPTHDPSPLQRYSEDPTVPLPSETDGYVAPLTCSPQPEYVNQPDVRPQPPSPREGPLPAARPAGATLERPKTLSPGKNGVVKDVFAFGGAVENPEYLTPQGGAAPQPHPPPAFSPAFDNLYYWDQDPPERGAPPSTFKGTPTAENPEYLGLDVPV
Chain of Phosphatidylinositol 4,5-bisphosphate 3-kinase catalytic subunit alpha isoform (Homo sapiens), P42336 [Q546K] (P42336 whole entry Q546K, canonical isoform): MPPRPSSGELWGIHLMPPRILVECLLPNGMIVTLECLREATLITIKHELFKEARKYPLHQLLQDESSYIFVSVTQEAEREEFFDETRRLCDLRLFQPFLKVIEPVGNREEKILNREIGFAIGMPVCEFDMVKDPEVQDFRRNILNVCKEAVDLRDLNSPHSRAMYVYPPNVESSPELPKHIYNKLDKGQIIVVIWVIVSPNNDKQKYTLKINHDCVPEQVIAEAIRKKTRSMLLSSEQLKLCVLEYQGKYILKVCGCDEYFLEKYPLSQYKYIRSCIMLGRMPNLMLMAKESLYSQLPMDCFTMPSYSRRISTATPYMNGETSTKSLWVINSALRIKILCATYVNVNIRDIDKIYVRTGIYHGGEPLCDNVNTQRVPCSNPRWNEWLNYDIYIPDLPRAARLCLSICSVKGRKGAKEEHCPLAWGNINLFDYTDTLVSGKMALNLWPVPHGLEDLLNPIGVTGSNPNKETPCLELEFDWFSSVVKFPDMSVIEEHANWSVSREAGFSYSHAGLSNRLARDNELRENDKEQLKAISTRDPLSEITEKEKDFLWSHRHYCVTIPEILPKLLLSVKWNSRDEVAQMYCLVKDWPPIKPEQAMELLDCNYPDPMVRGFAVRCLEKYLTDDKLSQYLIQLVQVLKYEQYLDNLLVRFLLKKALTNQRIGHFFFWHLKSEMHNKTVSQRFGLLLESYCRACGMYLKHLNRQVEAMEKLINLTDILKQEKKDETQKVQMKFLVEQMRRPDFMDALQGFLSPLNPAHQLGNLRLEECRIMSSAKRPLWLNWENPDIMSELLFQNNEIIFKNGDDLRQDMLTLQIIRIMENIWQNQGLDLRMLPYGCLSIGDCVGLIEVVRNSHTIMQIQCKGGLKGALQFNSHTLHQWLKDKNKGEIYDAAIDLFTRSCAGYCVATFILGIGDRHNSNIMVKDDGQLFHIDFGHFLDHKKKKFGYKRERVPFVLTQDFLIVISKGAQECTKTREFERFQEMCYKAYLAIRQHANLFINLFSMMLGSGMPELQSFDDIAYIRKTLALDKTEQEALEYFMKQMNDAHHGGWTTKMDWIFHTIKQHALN
Chain of Ribosomal protein S6 kinase alpha-2 (Homo sapiens) (Q15349 whole entry): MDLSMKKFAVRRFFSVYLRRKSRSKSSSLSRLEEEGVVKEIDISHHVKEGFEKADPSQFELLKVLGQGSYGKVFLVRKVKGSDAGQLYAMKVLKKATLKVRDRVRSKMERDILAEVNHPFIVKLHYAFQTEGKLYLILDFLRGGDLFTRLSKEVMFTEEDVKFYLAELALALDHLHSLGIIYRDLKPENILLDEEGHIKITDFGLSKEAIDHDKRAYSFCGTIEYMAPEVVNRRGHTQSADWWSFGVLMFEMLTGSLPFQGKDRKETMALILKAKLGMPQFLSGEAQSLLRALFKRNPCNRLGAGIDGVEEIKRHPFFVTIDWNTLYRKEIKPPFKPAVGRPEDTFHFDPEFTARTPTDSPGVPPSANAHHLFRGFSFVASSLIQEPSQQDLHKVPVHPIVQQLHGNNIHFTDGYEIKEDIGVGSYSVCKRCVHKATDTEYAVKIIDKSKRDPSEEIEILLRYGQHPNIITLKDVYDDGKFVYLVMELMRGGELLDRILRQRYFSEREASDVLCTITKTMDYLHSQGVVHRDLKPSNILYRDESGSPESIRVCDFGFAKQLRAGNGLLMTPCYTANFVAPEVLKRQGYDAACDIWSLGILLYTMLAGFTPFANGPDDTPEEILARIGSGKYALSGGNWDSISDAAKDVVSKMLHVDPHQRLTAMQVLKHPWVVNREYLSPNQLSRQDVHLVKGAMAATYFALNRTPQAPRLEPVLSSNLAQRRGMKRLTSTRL
Chain of Dual specificity mitogen-activated protein kinase kinase 3 (Homo sapiens) (P46734 whole entry): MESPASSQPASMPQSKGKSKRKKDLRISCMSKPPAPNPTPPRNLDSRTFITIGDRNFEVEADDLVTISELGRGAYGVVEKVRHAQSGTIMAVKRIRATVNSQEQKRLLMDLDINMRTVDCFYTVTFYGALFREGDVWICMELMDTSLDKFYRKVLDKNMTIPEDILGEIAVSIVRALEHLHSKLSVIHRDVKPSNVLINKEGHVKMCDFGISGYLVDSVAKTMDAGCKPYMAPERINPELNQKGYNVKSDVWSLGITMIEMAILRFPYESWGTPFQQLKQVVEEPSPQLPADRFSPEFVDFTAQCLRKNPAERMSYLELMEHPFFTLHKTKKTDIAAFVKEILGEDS

O=C(O)[C@@H]1[C@@H](Cn2nnc3ccccc3c2=O)CC[C@H]1C(=O)c1ccc(OCCC2CCOCC2)cc1 [BAY-694]
inactive: residual activity [1] 100% | residual activity [2] 100% | residual activity [3] 100% | residual activity [4] 99% | residual activity [5] 85% | residual activity [6] 92% | residual activity [7] 100% | inhibition [8] 4.06% | residual activity [9] 73% | residual activity [10] 100% | residual activity [11] 86% | residual activity [12] 97% | residual activity [13] 95% | residual activity [14] 100% | residual activity [15] 100% | residual activity [16] 76% | residual activity [17] 100% | inhibition [18] 8.62% | residual activity [19] 100% | residual activity [20] 80% | residual activity [21] 79% | residual activity [22] 100% | residual activity [23] 86% | residual activity [24] 99% | residual activity [25] 100% | residual activity [26] 100% | residual activity [27] 92% | residual activity [28] 100% | residual activity [29] 92% | residual activity [30] 100% | residual activity [31] 100% | residual activity [32] 87% | residual activity [33] 94% | residual activity [34] 100% | residual activity [35] 100% | residual activity [36] 88% | residual activity [37] 100% | residual activity [38] 80% | residual activity [39] 100% | residual activity [40] 100% | residual activity [41] 97% | residual activity [42] 100% | residual activity [43] 100% | residual activity [44] 100% | residual activity [45] 94%

O=C(O)[C@H]1[C@H](Cn2nnc3ccccc3c2=O)CC[C@@H]1C(=O)c1ccc(OCCC2CCOCC2)cc1 [BAY-7598]
inactive: residual activity [1] 100% | residual activity [2] 78% | residual activity [3] 82% | residual activity [4] 100% | residual activity [5] 96% | residual activity [6] 90% | residual activity [7] 100% | inhibition [8] -2.95% | residual activity [9] 85% | residual activity [10] 61% | residual activity [11] 88% | residual activity [12] 100% | residual activity [13] 95% | residual activity [14] 75% | residual activity [15] 89% | residual activity [16] 76% | residual activity [17] 83% | inhibition [18] 3.34% | residual activity [19] 100% | residual activity [20] 75% | residual activity [21] 92% | residual activity [22] 100% | residual activity [23] 97% | residual activity [24] 83% | residual activity [25] 100% | residual activity [26] 55% | residual activity [27] 88% | residual activity [28] 100% | residual activity [29] 100% | residual activity [30] 79% | residual activity [31] 100% | residual activity [32] 100% | residual activity [33] 85% | residual activity [34] 61% | residual activity [35] 100% | residual activity [36] 74% | residual activity [37] 100% | residual activity [38] 74% | residual activity [39] 97% | residual activity [40] 93% | residual activity [41] 94% | residual activity [42] 80% | residual activity [43] 75% | residual activity [44] 100% | residual activity [45] 77%
